From patent US11865098B1, “Methods and compositions for treating excessive sleepiness” (Axsome Malta Ltd., priority 2017, dated 2024)

Legend:
Format in all cases: in vivo, human
[1] = system: adults with OSA and excessive sleepiness; test: Maintenance of Wakefulness Test (MWT), phase 3 randomized withdrawal study in OSA; settings: for MWT mean sleep latency after 4 weeks of APC treatment: randomized patients, mITT, 75, 150 or 300 mg once daily
Procedure: The MWT is an objective test used to measure how alert a subject is during the day. The test consists of four sleep trials with two hours in between the trials. The first trial is performed 1.5-3 hours after the subject's normal wake-up time. Sensors are placed on the head, face, and chin to detect when the subject is asleep and awake during the test. The subject sits quietly in bed with his or her back and head supported by a pillow and is asked to sit still and look straight ahead while trying to stay awake as long as possible. Each trial lasts 40 minutes or until the subject is asleep for 90 seconds. Between trials, the subject stays out of bed and occupies himself or herself to remain awake. Falling asleep in an average of less than eight minutes is considered abnormal. About 40-60% of subjects with normal sleep stay awake for the entire 40 minutes of all four trials.
The study was a double-blind, placebo-controlled, enriched, randomized withdrawal design (FIG. 1). In the Titration Phase (weeks 1-2), patients started on a once-daily dose of APC 75 mg and could be titrated up or down every 3 days to reach a maximum tolerated dose of APC 75, 150, or 300 mg. In the Stable-Dose Phase (weeks 3-4), patients continued to receive the dose that they were titrated to in the Titration Phase for 2 weeks. […]
Efficacy was based on change from week 4 to 6 on the co-primary endpoints of MWT and ESS and percentage of patients reported as improved on the PGI-C and Clinician Global Impression of Change (CGI-C); assessed on a 7-point scale from 1 (very much improved) to 7 (very much worse).
MWT and ESS data were analyzed using a mixed-effect model repeated measures (MMRM); PGI-C and CGI-C were evaluated using a chi-square test. […] Safety and tolerability were evaluated based on treatment-emergent adverse events (TEAEs), vital signs, and laboratory values.

[2] = system: adult patients with OSA and ES; test: WPAI:SHP work productivity and activity impairment, 12-week parallel study in OSA; settings: 150 and 300 mg; week 12
Procedure: (§1) The study was a 12-week, double-blind, placebo-controlled, parallel design study as described in greater detail in Example 1 (Schweitzer et al., Sleep 40(Abstract Supplement):A237. Abstract 0641 (2017)). Patients were randomized (1:1:2:2:2) to APC 37.5, 75, 150, 300 mg, or placebo for 12 weeks, and were stratified by adherence or non-adherence with primary OSA therapy (adherent definition was use for ≥4 hours per night on >70% of nights). Two patient-reported measures were included as secondary efficacy outcomes to evaluate the effects of APC on functional status and work productivity and activity impairment at baseline and weeks 1, 4, 8, and 12. The Functional Outcomes of Sleep questionnaire short version (FOSQ-10) (Chasens et al., Sleep 32(7):915 (2009)) evaluated the effects of ES on functioning. The Work Productivity and Activity Impairment questionnaire for Specific Health Problems (WPAI:SHP) (Reilly et al., Pharmacoeconomics 4(5):353 (1993); Reilly, Work Productivity and Activity Impairment Questionnaire: Specific Health Problem V2.0 (WPAI: SHP). www.reillyassociates.net/WPAI_SHP) evaluated work productivity impairment among employed patients and overall activity impairment outside of work among all patients for the past 7 days. […]

[3] = system: adult patients with OSA and ES; test: PGI-C, 12-week placebo-controlled parallel study in OSA; settings: 37.5, 75, 150, 300 mg; week 12; listed as APC
Procedure: as §1

## NC(=O)OC[C@H](N)Cc1ccccc1 [JZP-110, (R)-2-amino-3-phenylpropyl carbamate]
[1]; Double-Blind Withdrawal Phase, patients who remained on JZP-110, P<0.0001 vs switched to placebo
  Change in mean MWT sleep latency from week 4 to week 6: -1.0 min
[1]; group increased from 12.3 at baseline
  MWT mean sleep latency after 4 weeks of APC treatment: 29.0 min
[1]; group increased from 13.1 at baseline
  MWT mean sleep latency after 4 weeks of APC treatment: 31.7 min
[2]
  WPAI:SHP presenteeism, overall work impairment and activity impairment compared to placebo: significantly decreased lower presenteeism, overall work impairment, and activity impairment
[3]
  Key secondary endpoint, PGI-C: met at all doses except for APC 37.5 mg
